Results on one substance are retold here after patent publication US6613322B2, “Method for treating a subject suffering from conditions associated with an extracellular zinc sphingomyelinase” (The Trustees of Columbia University in the City of New York, priority 1997, dated 2003).

The subject of experiment [1] is mannose-phosphorylated S-SMase of HUVECs. The experiment in a line: Binding of HUVEC S-SMase to mannose-phosphate receptor column. It counts as cell-based, human. As to conditions: conditioned medium of IL-1β-treated HUVECs; Western blot densitometry. The source says:
We recently reported that S-SMase is secreted through a Golgi pathway that bypasses the lysosomal pathway of L-SMase. Thus, we considered three general mechanisms to explain how IL-Lβ increases the secretion of SMase: secretion of mannose-phosphorylated SMase during trafficking of the ASM precursor to lysosomes (e.g., due to saturation of the mannose-6-phosphate receptor—cf. Ref. (46)), induction of secretion of intralysosomal SMase (cf. Ref. (47)), or increased trafficking of the ASM precursor protein through the normal Golgi secretory pathway. To begin, we assessed the mannose-phosphorylation state of S-SMase from control and IL-1β-treated HUVECs by passing conditioned media from these cells over a mannose-phosphate receptor column (cf. Ref. (48)). By Western blot analysis quantified by densitometry, only 7.9% of control S-SMase and 4.9% of S-SMase from the cytokine-treated cells bound to the column and could be eluted with mannose-6-phosphate. As a control for this experiment, we have previously shown that the massive secretion of SMase by ASM-transfected CHO cells can be partly explained by secretion of mannose-phosphorylated SMase due to saturation of the mannose-6-phosphate receptor^2; when conditioned medium from these cells was passed over the receptor column, 40.3% bound and could be eluted with mannose-6-phosphate. […]

The subject of the next experiment is S-SMase of HUVECs. Description: Immunoblot of S-SMase from conditioned medium of HUVECs. It is filed as cell-based, human. As to conditions: conditioned medium of IL-1β-treated HUVECs. The method, then:
FIG. 26. Immunoblot analysis of L- and S-SMase from control and IL-1β-treated HUVECs. HUVECs were incubated for 18 h in DMEM, 0.2% BSA alone (Con) or containing human recombinant interleukin-1β (5 ng/ml) (IL1β). SMase was partially purified from the cell homogenates and conditioned media of these cells, and then aliquots derived from equivalent numbers of cells were subjected to immunoblot analysis. Specifically, conditioned medium from control and IL-1(-treated cells yielded 256.0 and 262.5 μg of concanavalin A eluate protein, of which 60.8 μg and 60.0 μg aliquots were loaded onto the SDS-PAGGE gel, respectively. Cell homogenates from control and IL-1β-treated cells yielded 168.1 and 160.6 μg of DEAE flow-through protein, of which 59.5 μg and 60.0 μg aliquots were loaded onto the SDS-PAGGE gel, respectively. No band at the molecular weight of L-SMase was visible in conditioned media (right-hand panels), even when overexposed.
Partial Purification of L- and S-SMase from HUVECs—A modification of previously published procedures (39) was used. Cells were scraped in ice-cold 40 mM Tris-HCl, 0.1 mM ZnCl2, 0.1% NP-40, pH 7.2 (Buffer A), disrupted by sonication on ice using three 5-second bursts (Branson 450 Sonifier) and centrifuged at 100,000×g for one hour. […]

Consider IL-1β: human recombinant interleukin-1β, for which the “S-SMase bound to mannose-phosphate receptor column and eluted with mannose-6-phosphate” value in experiment [1] stood at 4.9%. Also, the “increase of higher-Mr S-SMase by densitometry of immunoblot” value in the experiment with S-SMase of HUVECs is “approximately two-fold”.
